Data: patent publication US10138265B2, “Uridine nucleoside derivatives, compositions and methods of use” (Tufts University, priority 2013, dated 2018)
Where two headings read alike, the source gives them in different places.

Tests used:
P2Y4 receptor = target: T1, P2Y4 receptor (Homo sapiens, UniProt P51582); test: Ca2+ mobilizing effect (fluo-4) in 1321N1 astrocytoma cells expressing P2Y4; assay type: cell-based; settings: 1321N1 human astrocytoma cells expressing P2Y4
T1 construct: expressed in transfected cells; host or cells: 1321N1 human astrocytoma cells
Procedure: (§1) Synthetic ligands were tested for activation of P2Y6 receptor by measuring receptor induced Ca^2+ changes with the fluorescent Ca^2+ indicator fluo-4. 1321N1 human astrocytoma cell lines either expressing P2Y2, P2Y4 or P2Y6 receptors were plated into 24-well plates. Two days after plating, fluorometric measurements were made and responses of cells to a serial dilution of ligands were determined P2Y6 receptor mediated Ca^2+ fluorescent change was determined by normalized accumulation of fluorescent change of 3 timepoints after ligand administration subtracted by value from ACSF control. Changes in fluorescent intensity were plotted corresponding to ligand concention in GraphPad. Dose-response curve and EC50 for each ligand was estimated using nonlinear curve fit and Sigmoidal dose-response analysis. […]
(§2) Synthetic ligands were tested for activation of P2Y6 receptor by measuring receptor induced Ca^2+ changes with the fluorescent Ca^2+ indicator fluo-4, and results are shown in FIG. 10(A)-(K). […] Two days after plating, fluorometric measurements were made and responses of cells to a serial dilution of ligands were determined P2Y6 receptor mediated Ca^2+ fluorescent change was determined by normalized accumulation of fluorescent change of 3 timepoints after ligand administration subtracted by value from ACSF control. […]

P2Y6 receptor [1] = target: T2, P2Y6 receptor (Homo sapiens, UniProt Q15077); test: Activation of P2Y6 receptor: receptor induced Ca2+ changes with fluo-4 in 1321N1 astrocytoma cells; assay type: cell-based; parameters: expressed in transfected cells; host or cells: 1321N1 human astrocytoma cells
Procedure: as §1, §2

P2Y2 receptor = target: T3, P2Y2 receptor (Homo sapiens, UniProt P41231); test: Ca2+ mobilizing effect (fluo-4) in 1321N1 astrocytoma cells expressing P2Y2; assay type: cell-based; settings: 1321N1 human astrocytoma cells expressing P2Y2
T3 construct: expressed in transfected cells; host or cells: 1321N1 human astrocytoma cells
Procedure: as §1, §2

PSAPP mice [2] = test: Postmortem immunohistochemistry of plaque load in cortex and hippocampus; assay type: in vivo, mouse
Procedure: Mice were perfused transcardially with 4% paraformaldehyde and 40 μm Coronal sections were collected. Sections were sequentially incubated in 0.3% H2O2 for 10 minutes, blocking solution for 2 hrs, blocking solution containing the primary antibody (rabbit anti-beta 1-42; rabbit anti-beta1-40, from Chemicon International and rat anti-CD45) for 48 hours at 4° C., and blocking solution containing biotinylated antibody or fluorescently-labeled antibody for 2 hours at room temperature. Sections were visualized in a bright field microscope or a confocal microscope, and the optical density was obtained using MetaMorph software.
After repeated imaging, brains were fixed and subjected to postmortem immunohistochemistry with amyloid beta specific antibodies β1-40 and β1-42 to evaluate the plaque load (area occupied by immunostaining of plaque) in cortex and hippocampus.
(§3) PSB0474 was systemically administered to PSAPP mice via intraperitoneal injection for 2, 4 and 6 consecutive days. In one group, prior to evaluation and following to administration for 6 consecutive days, treatment was suspended for two weeks (6+2 weeks group). Brains were then fixed and plaque load was evaluated by immunostaining with the amyloid beta specific antibodies: β1-40 and β1-42. Representative images of plaque load in cortex and hippocampus from animals that received injections of PSB0474 according to the foregoing injection schedules are shown in FIG. 5(A)-(D). […] Whereas, when administration of PSB0474 was stopped for 2 weeks following six consecutive days of treatment (denoted as the 6+2 weeks group), β1-40 staining rebounded; although to a level lower than observed in mice treated with saline as a vehicle control. FIGS. 6A and 6B depict the reduction in plaque load (%) the cortex and hippocampus, respectively, in PSAPP mice after treatment with 3-phenacyl-UDP for 2, 4, or 6 consecutive days, as assayed by staining with the β1-40 antibody. FIGS. 6C-6F depict data obtained following administration of different dosages of PSB0474.
To generate these graphs showing plaque load, mice were euthanized, brain sections cut and antibodies directed against Aβ42 were used to disclose Aβ plaques. Images were acquired digitally and an algorithm was applied to threshold the image so that plaques were isolated from the background. The algorithm then calculated the percent area of the field of view occupied by the plaques.
Brain samples were collected for Abeta analysis with immunostaining. Brains samples were collected after transcardial perfusion with phosphate buffer and 4% paraformaldehyde. Floating brain sections (40 µm) were collected using a microtome. Immunostaining for Aβ40 and Aβ42 were performed according to previously established protocol. Images with DAB staining were collected with brightfield microscopy and analyzed with ImageJ Macro. All data analysis and statistics were performed in GraphPad Prism 6.0.

PSAPP mice [3] = test: Contextual fear conditioning test (freezing behavior); assay type: in vivo, mouse
Procedure: On day one, animals were trained in a fear conditioning apparatus for a total of 7 minutes with a two-pairing paradigm of cue and mild foot shock (a 30-s acoustic-conditioned stimulus, 80 dB; a 2-s shock stimulus, 0.5 mA). To evaluate contextual fear learning, the animals were returned to the training context 24 hours post-training, and freezing behavior was scored for 5 minutes. Freezing behavior was monitored by MotorMonitor (Hamilton Kinder) and scored every 5 seconds.
In this study, the fear conditioning associative learning paradigm was used as a rapid cognition assay for PSAPP mice. This study allowed us to probe cognitive function with a single training day followed in 24 hours by tests for contextual and cued fear learning. Contextual fear learning is dependent upon a brain area that has been implicated as a locus for cognitive decline in AD: the hippocampus. Two pairings of CS—US for fear conditioning were followed 24 hours later by testing for contextual and cued fear learning. Previous studies have reported that PSAPP animals appear to have a selective hippocampus-dependent impairment in associative learning following two pairings of conditioned stimuli for fear conditioning.
This represents a decrease in the cognitive impairment observed in the untreated mice.

P2Y6 receptor [4] = target: T2, P2Y6 receptor; settings: cited from earlier work
PSAPP mice [5] = test: Tolerability of a higher dose in the plaque burden study; assay type: in vivo, mouse; settings: 1000× increase in dose
Procedure: as §3

PSAPP mice [6] = test: Two-photon in vivo imaging of methoxyX04 labeled amyloid plaques in barrel cortex; parameters: species or system mouse; settings: acute i.c.v. treatment
From the text: In this study, PSAPP mice were anesthetized using isoflurane and a thin-skull preparation was used to minimize the surface damage. Amyloid plaques were visualized with methoxyX04 labeling and blood plasma was labeled with Rhodamine dextran to facilitate re-localization of the same imaging area. Stack images were obtained using a two-photon system (Prairie Technologies) with excitation at 850 nm. The emission was detected by external photomultiplier tubes (525/70; DLCP 575; 607/45 nm). Animals were anesthetized and immobilized in a stereotaxic frame. For each injection, 1 μl of 10 mM UDP or other suitable compounds in artificial cerebrospinal fluid (ACSF) as the vehicle were injected intraventricularly using the following coordinates: AP 0.2 mm, ML 1 mm, and DV 2.2 mm. To evaluate the effect of UDP on plaque burden, two-photon microscopy was used to assess the amyloid plaques in the barrel cortex in living PSAPP mice. Amyloid plaques were stained by systemically administered methoxy-[…]. One day prior to imaging, PSAPP mice were injected with methoxyX04 to label the amyloid plaques. On the imaging day, to facilitate the re-location of the same imaging area, blood plasma was labeled with Rhodamine dextran. Images were obtained from the same start- and end-point to ensure the same image volume. The results were shown in a maximum intensity projection of a fluorescent stack containing 45 planes. Representative images of methoxyX04 labeled amyloid plaques and angiopathy on days 1 are shown in FIG. 1(A)-(C) Immediately after imaging, animals were injected with ACSF or UDP intracerebroventricularly (i.c.v.) and allowed to recover. On day 4, animals were subjected to a second period of imaging of the same regions studied on day 1 and the results are shown in FIG. 1(D)-(F). The similar pattern of angiopathy (shown by open arrows) indicated the same imaging area.

PSAPP mice [7] = test: Postmortem immunohistochemistry of plaque load in cortex and hippocampus; assay type: in vivo, mouse; remark: listed apart in the source
PSAPP mice [8] = test: Hippocampal long-term potentiation (LTP) recording; assay type: in vivo, mouse; settings: acute treatment
Procedure: Hippocampal slices (350 μm thick) were prepared from 6-month-old PSAPP mice. Baseline responses were obtained every 10 seconds and Input-output (I/O) curves, paired-pulse modification and LTP were successively measured. The stimulation intensity was set to a level that gives a value of 30% of the maximum obtained. LTP were induced by high frequency stimulation (HFS, 100 pulses at 100 Hz, four times) or by theta-burst stimulation (TBS, 10 bursts at 5 Hz, repeated 10 times in 15 s intervals).
Accumulated evidence has shown that amyloid peptides naturally secreted or isolated from Alzheimer's brains impair synaptic plasticity, especially hippocampal long-term potentiation (Walsh et al., 2002). Therefore, we further performed LTP recordings in PASPP mice and investigated whether P2Y6 receptor-mediated plaque clearance affects synaptic plasticity. […] First, it was observed that LTP at the schaffer collateral synapse within the CA1 region was depressed in PSAPP mice, as compared with littermates (FIG. 8(A)).

[9] = Half-life in human whole blood; assay type: in vitro ADME
Oral bioavailability = settings: in vivo
[10] = barrel cortex, day 4 vs day 1, P<0.01
[11] = 10 ug/kg i.p. once per day for 7 days, PS1/APP mice, cortex

T2 sequence (Q15077 whole entry): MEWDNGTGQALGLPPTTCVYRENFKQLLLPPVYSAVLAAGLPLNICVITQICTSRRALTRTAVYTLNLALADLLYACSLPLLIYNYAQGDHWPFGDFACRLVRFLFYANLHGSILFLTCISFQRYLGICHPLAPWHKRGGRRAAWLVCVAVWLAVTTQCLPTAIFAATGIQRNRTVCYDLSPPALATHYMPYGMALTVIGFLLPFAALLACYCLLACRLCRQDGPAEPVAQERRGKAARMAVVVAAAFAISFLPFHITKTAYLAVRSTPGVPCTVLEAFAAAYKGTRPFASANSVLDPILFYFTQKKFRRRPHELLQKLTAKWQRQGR
T3 sequence (P41231 whole entry): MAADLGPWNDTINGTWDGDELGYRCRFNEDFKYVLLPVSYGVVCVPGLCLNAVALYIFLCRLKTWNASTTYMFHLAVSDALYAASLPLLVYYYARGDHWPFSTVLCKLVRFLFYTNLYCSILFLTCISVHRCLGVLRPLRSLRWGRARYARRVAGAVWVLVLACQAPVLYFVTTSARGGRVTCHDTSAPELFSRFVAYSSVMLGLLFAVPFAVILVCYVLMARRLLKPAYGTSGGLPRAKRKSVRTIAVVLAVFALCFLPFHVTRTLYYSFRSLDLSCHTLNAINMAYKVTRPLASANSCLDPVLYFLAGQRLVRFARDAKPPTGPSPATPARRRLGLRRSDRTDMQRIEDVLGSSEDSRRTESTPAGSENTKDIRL
T1 sequence (P51582 whole entry): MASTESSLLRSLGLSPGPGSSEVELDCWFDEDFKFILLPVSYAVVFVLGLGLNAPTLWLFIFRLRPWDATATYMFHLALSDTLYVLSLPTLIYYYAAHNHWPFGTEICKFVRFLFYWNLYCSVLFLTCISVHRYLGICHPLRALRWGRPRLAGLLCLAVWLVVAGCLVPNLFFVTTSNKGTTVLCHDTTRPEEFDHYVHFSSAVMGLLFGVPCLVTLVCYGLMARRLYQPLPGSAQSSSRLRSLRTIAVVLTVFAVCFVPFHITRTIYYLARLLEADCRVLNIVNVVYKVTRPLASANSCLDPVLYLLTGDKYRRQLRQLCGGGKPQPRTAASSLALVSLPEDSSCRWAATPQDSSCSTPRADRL

## O=c1ccn([C@@H]2O[C@H](COP(=O)(O)OP(=O)(O)O)[C@@H](O)[C@H]2O)c(=O)n1Cc1noc2ccccc12
P2Y4 receptor
  elevating Ca2+ levels in P2Y4 receptor expressing cells: not effective
P2Y6 receptor [1]; 1321N1 human astrocytoma cells expressing P2Y6, fluo-4 Ca2+
  EC50: 12 nM
P2Y6 receptor [1]; with MRS2578
  ability to elevate Ca2+ signals in P2Y6 receptor expressing cells on addition of P2Y6 antagonist MRS2578: attenuated
P2Y2 receptor
  elevating Ca2+ levels in P2Y2 receptor expressing cells: not effective

## O=C(Cn1c(=O)ccn([C@@H]2O[C@H](COP(=O)(O)OP(=O)(O)O)[C@@H](O)[C@H]2O)c1=O)c1ccccc1 [3-phenacyl-UDP]
PSAPP mice [2]; 1 mg/kg, one week daily
  effects on the efficacy endpoint at the higher dose: smaller effects
PSAPP mice [2]; 6 consecutive days i.p., then stopped for 2 weeks (6+2 weeks group), level lower than saline control
  β1-40 staining after treatment stopped: rebounded
PSAPP mice [2]; i.p. for 4 and 6 consecutive days
  immunoreactivity of β1-40 in both cortex and hippocampus: significantly decreased
PSAPP mice [3]; chronic injection, two doses
  total freezing percentage in context test: increased
P2Y6 receptor [4]
  selectivity for P2Y6 receptor: > 500 fold
P2Y6 receptor [4]; read-out: EC50, P2Y6 receptor agonist
  EC50: 70 nM
PSAPP mice [5]
  detrimental effects to the animal: did not cause detrimental effects

## O=c1ccn([C@@H]2O[C@H](COP(=O)(O)OP(=O)(O)O)[C@@H](O)[C@H]2O)c(=O)[nH]1 [UDP, uridine diphosphate]
PSAPP mice [6]; [10]
  reduction in plaque load: 17.2%
  reduction in the number of plaques: 12.6%
PSAPP mice [6]; second imaging session, P<0.01
  reduction in cross-sectional area of individual identified plaques: 18.2%
PSAPP mice [2]; β1-40 antibody staining, cortex, acute i.c.v., p<0.05
  decrease in plaque load, cortex: 60%
PSAPP mice [2]; β1-40 antibody staining, hippocampus, acute i.c.v., p<0.01
  decrease in plaque load, hippocampus: 62%
PSAPP mice [2]; β1-42 antibody staining, cortex, acute i.c.v., P<0.01
  decrease in plaque load, cortex: 48%
PSAPP mice [7]; β1-42 antibody staining, hippocampus, acute i.c.v., P<0.05
  decrease in plaque load, hippocampus: 47%
PSAPP mice [3]; acute i.c.v. treatment, ACSF control 18%±3%
  total freezing percentage: 49%±5%
PSAPP mice [8]; HFS
  LTP at CA1 of hippocampus compared with ACSF: significantly increased
PSAPP mice [8]; comparable to littermates
  field excitatory postsynaptic potential (fEPSP), last 15 min potentiation: significant increase

## O=c1ccn([C@@H]2O[C@H](CO)[C@H](O)C2O)c(=O)n1Cc1noc2ccccc12 (some centres unmarked) [compound 5]
[9]
  half-life: 16.4 h
PSAPP mice [2]; 10 ug/kg i.p. once per day for 7 days, PS1/APP mice
  size distribution of remaining plaques: significantly reduced
PSAPP mice [2]; [11]
  Aβ42 plaque burden: significantly reduced
PSAPP mice [7]; [11]
  Aβ40 plaque burden: significantly reduced
Oral bioavailability
  bioavailability: 72.2%
